Test systems include SF-268; HCT-15; A498; XF498; SK-MEL-28; EKVX; PC-3; UACC-62; HOP-92; KM12; DU-145; LXFL 529; SF-539; MOLT-4; SNB-75; A549; KM-20L2; NCI/ADR-RES; HOP-62; HT-29.
What all share (test): DTP human tumour cell line panel, 48 h

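Method: 48-hour compound exposure of cells in 96-well plates, five concentrations, linear interpolation of endpoints. GI50 marks 50% less growth.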 The source made the active and inactive calls. No stated cut-off is given here; in the data, active = GI50 up to about 1.1 µM and inactive = higher.

The GI50 is the concentration at which growth is held to half of that of the control. In the case of `Cn1cnc([N+](=O)[O-])c1Sc1nnc(-c2cccnc2)n1C`, the GI50 in the experiment with SF-268 is 36.2 µM (inactive); in the experiment on HCT-15, 17.2 µM; with A498, > 79.1 µM (inactive); with XF498, 20.4 µM (inactive); in the experiment on SK-MEL-28, 17.5 µM (inactive); in the experiment with EKVX it was 38.2 µM (inactive). Also, the GI50 in the experiment with PC-3 is 25 µM (inactive); in the experiment with UACC-62, 17.3 µM (inactive); in the experiment on HOP-92, 14.5 µM (inactive); in the experiment with KM12 it was > 82 µM (inactive); in the experiment on DU-145, 36.4 µM (inactive); in the experiment with LXFL 529, 12 µM (inactive). Besides, the GI50 in the experiment with SF-539 is 22.2 µM (inactive); in the experiment on MOLT-4, 18.2 µM (inactive); in the experiment on SNB-75, 58.7 µM (inactive); with A549, 84.5 µM (inactive); in the experiment with KM-20L2, 33.9 µM (inactive); in the experiment on NCI/ADR-RES it was 46.6 µM (inactive). Moreover, the GI50 with HOP-62 is > 91.6 µM (inactive); with HT-29, 17.4 µM (inactive).

As to `CCC(=O)OCOc1ccc(/C=C2\CCC(CN(C)C)C2=O)cc1` (configuration not stated), the GI50 was 8.59 µM (inactive) with SF-268; 3.13 µM in the experiment on HCT-15; 15.9 µM (inactive) in the experiment on A498; 2.14 µM (inactive) in the experiment with XF498; 4.29 µM (inactive) with SK-MEL-28; 14 µM (inactive) in the experiment on EKVX. For the same molecule, the GI50 was 14.2 µM (inactive) in the experiment with PC-3; 4.1 µM (inactive) in the experiment with UACC-62; 11 µM (inactive) with HOP-92; 3.9 µM (inactive) in the experiment on KM12; 10.8 µM (inactive) in the experiment on DU-145; 2.94 µM (inactive) in the experiment on LXFL 529. The GI50 in the experiment on SF-539 is 8.41 µM (inactive); in the experiment on MOLT-4 it was 2.51 µM (inactive); with SNB-75, 12.8 µM (inactive); in the experiment with A549, 18.3 µM (inactive); with KM-20L2 it was 13.1 µM (inactive); in the experiment with NCI/ADR-RES, 2.96 µM (inactive). Besides, the values for the GI50 with HOP-62 and with HT-29 were 15.2 µM (inactive) and 6.31 µM (inactive), respectively.

On to `CN1c2ccccc2N(C)C2C1N(C)c1ccccc1N2C` (configuration not stated), for which the GI50 is 12.3 µM (inactive) in the experiment on SF-268; 4.25 µM in the experiment with HCT-15; 31.6 µM (inactive) in the experiment with A498; 7 µM (inactive) with XF498; 4.69 µM (inactive) with SK-MEL-28; 61.5 µM (inactive) with EKVX. Moreover, the GI50 in the experiment with UACC-62 is 5.15 µM (inactive); in the experiment with HOP-92 it was 10.4 µM (inactive); in the experiment with KM12 it was 16 µM (inactive); in the experiment on LXFL 529, 12.6 µM (inactive); in the experiment with SF-539, 15.3 µM (inactive); with MOLT-4 it was 2.86 µM (inactive). The GI50 in the experiment on SNB-75 was 6.9 µM (inactive); with A549 it was 26.8 µM (inactive); in the experiment with KM-20L2 it was 15.7 µM (inactive); in the experiment on HOP-62 it was 34.3 µM (inactive); in the experiment with HT-29, 7.78 µM (inactive).

For the origin of these results see ChEMBL document CHEMBL1201862, “PubChem BioAssay data set” (2004).
